In ChEMBL document CHEMBL1201862, “PubChem BioAssay data set” (2004):
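96-well plates; 48 h exposure; 5 concentrations. Endpoints by linear interpolation between flanking doses. Not reached: highest tested concentration assigned. Here, GI50 denotes the concentration required for 50% inhibition of growth.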 The source made the active and inactive calls. Cut-off read from the data, not from the text of the source: active = GI50 up to about 1.1 µM and inactive = higher.

Assays:
Experiment in all cases: DTP human tumour cell line panel, 48 h
IGROV-1 = test system: IGROV-1
A498 = test system: A498
SW-620 = test system: SW-620
K562 = test system: K562
COLO 205 = test system: COLO 205
NCI/ADR-RES = test system: NCI/ADR-RES
MDA-MB-435 = test system: MDA-MB-435
MCF7 = test system: MCF7
HOP-62 = test system: HOP-62
SF-295 = test system: SF-295
MDA-MB-231 = test system: MDA-MB-231
Malme-3M = test system: Malme-3M
RXF 393 = test system: RXF 393
UO-31 = test system: UO-31
SK-MEL-28 = test system: SK-MEL-28
PC-3 = test system: PC-3
T47D = test system: T47D
OVCAR-3 = test system: OVCAR-3
HL-60 = test system: HL-60
786-0 = test system: 786-0
HOP-92 = test system: HOP-92
A549 = test system: A549
DMS-114 = test system: DMS-114
SK-OV-3 = test system: SK-OV-3
M14 = test system: M14
TK-10 = test system: TK-10
UACC-62 = test system: UACC-62
SNB-19 = test system: SNB-19
SN12C = test system: SN12C
BT-549 = test system: BT-549
Hs-578T = test system: Hs-578T
KM-20L2 = test system: KM-20L2
RPMI-8226 = test system: RPMI-8226
SK-MEL-2 = test system: SK-MEL-2
NCI-H23 = test system: NCI-H23
HCT-15 = test system: HCT-15
SF-268 = test system: SF-268
OVCAR-5 = test system: OVCAR-5
LXFL 529 = test system: LXFL 529
OVCAR-4 = test system: OVCAR-4
LOX IMVI = test system: LOX IMVI
DU-145 = test system: DU-145
M19-MEL = test system: M19-MEL
KM12 = test system: KM12
NCI-H460 = test system: NCI-H460
SNB-78 = test system: SNB-78
OVCAR-8 = test system: OVCAR-8
SR = test system: SR
SNB-75 = test system: SNB-75
CAKI-1 = test system: CAKI-1
ACHN = test system: ACHN
DLD-1 = test system: DLD-1
U-251 = test system: U-251
SK-MEL-5 = test system: SK-MEL-5
NCI-H226 = test system: NCI-H226
UACC-257 = test system: UACC-257
HCC 2998 = test system: HCC 2998
EKVX = test system: EKVX
HT-29 = test system: HT-29
MDA-N = test system: MDA-N
HCT-116 = test system: HCT-116
SF-539 = test system: SF-539
CCRF-CEM = test system: CCRF-CEM
MOLT-4 = test system: MOLT-4
NCI-H522 = test system: NCI-H522
DMS-273 = test system: DMS-273
HOP-18 = test system: HOP-18

In the case of `Cc1nc(-n2nc(-c3ccccc3)cc2-c2ccccc2)sc1C(/C=C\c1ccc([N+](=O)[O-])cc1)=N/NC(=S)NN`, the GI50 (IGROV-1) is reported as 40.7 µM (inactive), the GI50 (A498) is reported as > 100 µM (inactive) and the GI50 (SW-620) is reported as > 74 µM (inactive). For the same compound, the GI50 (K562) was > 56.6 µM (inactive), the GI50 (COLO 205) was > 31.6 µM (inactive) and the GI50 (NCI/ADR-RES) was 26.9 µM (inactive). The GI50 (MDA-MB-435) was > 100 µM (inactive), the GI50 (MCF7) was 15.4 µM (inactive) and the GI50 (HOP-62) was 22 µM (inactive). The GI50 (SF-295) was 13.8 µM (inactive), the GI50 (MDA-MB-231) was > 10 µM (inactive) and the GI50 (Malme-3M) was > 58.6 µM (inactive). The GI50 (RXF 393) was 37.4 µM (inactive), the GI50 (UO-31) was > 43.9 µM (inactive) and the GI50 (SK-MEL-28) was 45.2 µM (inactive). The GI50 (PC-3) was 28.2 µM (inactive), the GI50 (T47D) was 24.9 µM (inactive) and the GI50 (OVCAR-3) was > 46.8 µM (inactive). The GI50 (HL-60) was > 52.5 µM (inactive), the GI50 (786-0) was 22.9 µM (inactive) and the GI50 (HOP-92) was > 100 µM (inactive). For the same compound, the GI50 (A549) was 18.7 µM (inactive), the GI50 (DMS-114) was 37.4 µM (inactive) and the GI50 (SK-OV-3) was > 85.7 µM (inactive). The GI50 (M14) was 34.4 µM (inactive), the GI50 (TK-10) was 37.2 µM (inactive) and the GI50 (UACC-62) was 39.1 µM (inactive). For the same compound, the GI50 (SNB-19) was > 49.3 µM (inactive), the GI50 (SN12C) was 21.7 µM (inactive) and the GI50 (BT-549) was 21.3 µM (inactive). The GI50 (Hs-578T) was 25 µM (inactive), the GI50 (KM-20L2) was 50.6 µM (inactive) and the GI50 (RPMI-8226) was > 48.8 µM (inactive). The GI50 (SK-MEL-2) was 44.1 µM (inactive), the GI50 (NCI-H23) was 22.1 µM (inactive) and the GI50 (HCT-15) was 22.8 µM. For the same compound, the GI50 (SF-268) was 26.4 µM (inactive), the GI50 (OVCAR-5) was 38.7 µM (inactive) and the GI50 (LXFL 529) was 47.3 µM (inactive). The GI50 (OVCAR-4) was 26.2 µM (inactive), the GI50 (LOX IMVI) was 26.1 µM (inactive) and the GI50 (DU-145) was 31 µM (inactive). For the same compound, the GI50 (M19-MEL) was > 100 µM (inactive), the GI50 (KM12) was 43.7 µM (inactive) and the GI50 (NCI-H460) was 33.5 µM (inactive). For the same compound, the GI50 (SNB-78) was 70 µM (inactive), the GI50 (OVCAR-8) was 16.7 µM (inactive) and the GI50 (SR) was 0.0948 µM (active). For the same compound, the GI50 (SNB-75) was 74.3 µM (inactive), the GI50 (CAKI-1) was > 42.5 µM (inactive) and the GI50 (ACHN) was 40.3 µM (inactive). The GI50 (DLD-1) was 19.2 µM (inactive), the GI50 (U-251) was > 74.3 µM (inactive) and the GI50 (SK-MEL-5) was 27.7 µM (inactive). For the same compound, the GI50 (NCI-H226) was > 46.8 µM (inactive), the GI50 (UACC-257) was > 42.1 µM (inactive) and the GI50 (HCC 2998) was 13.8 µM (inactive). For the same compound, the GI50 (EKVX) was > 56.6 µM (inactive), the GI50 (HT-29) was 30.6 µM (inactive) and the GI50 (MDA-N) was 22 µM (inactive). For the same compound, the GI50 (HCT-116) was 19.5 µM (inactive), the GI50 (SF-539) was 24.2 µM (inactive) and the GI50 (CCRF-CEM) was > 50.8 µM (inactive). The GI50 (MOLT-4) was > 52.5 µM (inactive) and the GI50 (NCI-H522) was 18.2 µM (inactive).
For `CCOC(=O)C12CCCC1(O)N(NC(=O)c1ccccc1)C(C)=C2C(=O)OC` (stereo not given), the GI50 (IGROV-1) was > 100 µM (inactive), the GI50 (A498) was > 100 µM (inactive) and the GI50 (SW-620) was > 100 µM (inactive). For the same compound, the GI50 (K562) was > 100 µM (inactive), the GI50 (DMS-273) was > 100 µM (inactive) and the GI50 (COLO 205) was > 100 µM (inactive). The GI50 (HOP-62) was > 100 µM (inactive), the GI50 (SF-295) was > 100 µM (inactive) and the GI50 (Malme-3M) was > 100 µM (inactive). For the same compound, the GI50 (UO-31) was > 100 µM (inactive), the GI50 (HOP-18) was > 100 µM (inactive) and the GI50 (OVCAR-3) was > 100 µM (inactive). The GI50 (HL-60) was > 100 µM (inactive), the GI50 (786-0) was > 100 µM (inactive) and the GI50 (HOP-92) was > 100 µM (inactive). For the same compound, the GI50 (A549) was > 100 µM (inactive), the GI50 (SK-OV-3) was > 100 µM (inactive) and the GI50 (M14) was > 100 µM (inactive). For the same compound, the GI50 (TK-10) was > 100 µM (inactive), the GI50 (UACC-62) was > 100 µM (inactive) and the GI50 (SNB-19) was > 100 µM (inactive). For the same compound, the GI50 (SN12C) was > 100 µM (inactive), the GI50 (KM-20L2) was > 100 µM (inactive) and the GI50 (RPMI-8226) was > 100 µM (inactive). For the same compound, the GI50 (SK-MEL-2) was > 100 µM (inactive), the GI50 (NCI-H23) was > 100 µM (inactive) and the GI50 (HCT-15) was over 100 µM. For the same compound, the GI50 (SF-268) was > 100 µM (inactive), the GI50 (OVCAR-5) was > 100 µM (inactive) and the GI50 (LXFL 529) was > 100 µM (inactive). For the same compound, the GI50 (OVCAR-4) was > 100 µM (inactive), the GI50 (LOX IMVI) was > 100 µM (inactive) and the GI50 (M19-MEL) was > 100 µM (inactive). The GI50 (KM12) was > 100 µM (inactive), the GI50 (NCI-H460) was > 100 µM (inactive) and the GI50 (SNB-78) was > 100 µM (inactive). For the same compound, the GI50 (OVCAR-8) was > 100 µM (inactive), the GI50 (CAKI-1) was > 100 µM (inactive) and the GI50 (ACHN) was > 100 µM (inactive). The GI50 (U-251) was > 100 µM (inactive), the GI50 (NCI-H226) was > 100 µM (inactive) and the GI50 (UACC-257) was > 100 µM (inactive). For the same compound, the GI50 (HCC 2998) was > 100 µM (inactive), the GI50 (EKVX) was > 100 µM (inactive) and the GI50 (HT-29) was > 100 µM (inactive). For the same compound, the GI50 (HCT-116) was > 100 µM (inactive), the GI50 (SF-539) was > 100 µM (inactive) and the GI50 (CCRF-CEM) was > 100 µM (inactive). For the same compound, the GI50 (MOLT-4) was > 100 µM (inactive) and the GI50 (NCI-H522) was > 100 µM (inactive).
